# Entries after “also recorded” stand apart in the source; their conditions may differ. Where a SMILES comes first, the peptide text is derived from it. [ ]: non-standard residue; d: D form.
# Assays:
# [1] = biological target: T1, E17K 33-mer epitope (PH Domain fragment of Akt1) (Homo sapiens, UniProt P31749, E17K/H13K); experiment: Fluorescence polarization binding to E17K mutant epitope; conditions: yleaf peptide 4, fluorescence polarization in solution, triplicate
# T1 construct: made in house; host or cells: chemical synthesis (Fmoc SPPS)
# T1 sequence (P31749 1-33 H13K/E17K limits assumed): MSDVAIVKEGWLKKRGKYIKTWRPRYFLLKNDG
# Description: (§1) FIG. 2: Anchor ligand structure and characterization. (FIG. 2A) The peptide anchor ligand, yleaf (SEQ ID NO: 43), which was discovered using the epitope-targeting technique. The different sets of R groups indicate the modifications that were made to perform the various experiments described. (FIG. 2B) Point ELISA for specificity obtained by immobilizing biotinylated yleaf (SEQ ID NO: 43) anchor ligand 2 onto a Neutravidin plate, then incubating with a 6 His-tagged epitope (“6 His” disclosed as SEQ ID NO: 4) 3. […] (FIG. 2C) Binding curves of yleaf (SEQ ID NO: 43) anchor ligand 4 to the full-length WT or E17K mutant Akt1 proteins obtained in solution by fluorescence polarization. A saturation point for the WT ligand was not reached due to the prohibitively high protein concentration required. (FIG. 2D) Full binding curves of yleaf (SEQ ID NO: 43) anchor ligand 4 to the WT or E17K mutant epitopes. […] All assays were performed in triplicate and averaged. Error bars indicate standard deviation.
# (§2) The selectivity of the yleaf (SEQ ID NO: 43) peptide for the E17K 33-mer epitope was also tested in an ELISA assay format. For these assays, the WT or E17K 33-mer peptide fragments were captured using the PEG-biotin-modified yleaf (SEQ ID NO: 43) ligand immobilized on a neutravidin-coated plate.
# [2] = biological target: full length Akt1E17K (Homo sapiens, UniProt P31749, E17K); experiment: Fluorescence polarization binding to full-length E17K Akt1; conditions: yleaf peptide 4, fluorescence polarization in solution, triplicate
# Description: as §1
# FIG. 5: The PCC agent triligand development strategy, structure, and inhibition data. (FIG. 5A) The yleaf (SEQ ID NO: 43) anchor ligand with a C-terminal alkyne 2 was screened against an azide-terminated library in the presence of the full-length PH Domain to identify a biligand. The biligand 7 was then appended with an N-terminal azide and screened against an alkyne library to identify a triligand. […]
# [3] = biological target: T2, E17K mutant PH Domain (PHD) of Akt1 (Homo sapiens, UniProt P31749, E17K); experiment: Streptavidin-agarose immunoprecipitation (pulldown), E17K; format: binding; conditions: streptavidin agarose, 1xTBS, western blot band size, in words
# T2 construct: The first 124 N-terminal amino acids from full length Akt1 were used as the PH Domain DNA; made in house; host or cells: E. coli
# Description: Four biligand candidates were chosen based on their hydrophobicity and sequence homology using principal component analysis (FIG. 25). Biligands were synthesized by coupling the 2° ligand onto Rink Amide Resin on the Titan peptide synthesizer. The amide group on the end of the Lys(N3) was capped by shaking the resin with 2 mL acetic anhydride, 2 mL NMP and 0.5 mL DIEA for 3×10 minutes, then washed with NMP. FMOC-Propargylglycine-Otbu (Pra) was clicked onto the Lys(N3) on the 2° ligand by incubating 2 eq of the Pra amino acid with 2 eq CuI and 2 eq ascorbic acid with 1 eq azide on resin in 20% piperidine/NMP for 3 hours. The resin was washed 5×4 mL with a chelating solution of 1 g sodium diethyldithiocarbamate in 20 mL NMP and 1 mL DIEA. The anchor was then built onto the 2° ligand on bead, and an N-terminal PEG5-biotin tag were added. Assays were performed exactly as for the anchor ligands, except for two key differences. The biligand assays were done with 6 ug of GST-tagged PHD protein, instead of the untagged PHD that was used in the anchor pulldowns. The pull-downs were also conducted out of 1% serum in 1×TBS, as opposed to just 1×TBS.
# Pulldown assays were done on Streptavidin Agarose resin from Invitrogen. The resin was incubated with N-terminal biotinylated anchor peptide candidates identified via the ClusterLigand sequence analysis. The anchor candidate coated beads were then incubated with either the wildtype or mutant protein to compare the selectivity of the ligands, as well as the binding ability. The bound protein was eluted and western blotted to compare the amount of protein present for each sample.
# Relative protein band sizes were analyzed to compare binding between the anchor candidates and were used to determine selectivity for either wildtype or mutant PH Domain (FIG. 11). […] Both of these ligands look fairly selective for their respective PH Domain.
# [4] = tested on: E17K 33-mer epitope vs WT 33-mer epitope (6His-tagged); experiment: Point ELISA with anchor ligand and 33-mer epitope; format: binding; conditions: PEG-biotin-modified yleaf on neutravidin plate; epitope 100 nM-1 μM, in words
# Description: as §2
# For these assays, 100 nM Biotin-PEG5-yleaf (SEQ ID NO: 43) (FIG. 12) was immobilized for one hour on a neutravidin-coated ELISA plate (Pierce). The plate was blocked in 5% BSA in 1×TBS for one hour, then again overnight at room temperature. The immobilized anchor was then incubated with either 1 μM or 100 nM wildtype 33-mer epitope or 1 μM or 100 nM E17K mutant 33-mer epitope for one hour. The plate was washed three times with 1×TBS+0.1% Tween-20 and tapped dry. The epitope was then detected by a 1:1,000 dilution of an anti-his mouse mAb (ab18184, Abcam) for one hour, washed as above, and then detected with 1:10,000 dilution of an anti-mouse HRP-conjugated goat pAb (Abcam) for one hour. The plate was once again washed and developed with a 1:1 TMB substrate (KMB) for 15 minutes. To graph the data, the blank (epitope and antibodies binding to plate with no anchor ligand present) was subtracted from the triplicate sample values. […] The triplicate values were then graphed (FIG. 1C) with their error bars and the p-values were calculated by GraphPad.
# T2 sequence (P31749 1-124 E17K): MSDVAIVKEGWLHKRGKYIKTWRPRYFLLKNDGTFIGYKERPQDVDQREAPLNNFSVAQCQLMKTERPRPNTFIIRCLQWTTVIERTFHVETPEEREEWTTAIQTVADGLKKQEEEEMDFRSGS
# full length Akt1E17K, sequence (P31749 whole entry E17K): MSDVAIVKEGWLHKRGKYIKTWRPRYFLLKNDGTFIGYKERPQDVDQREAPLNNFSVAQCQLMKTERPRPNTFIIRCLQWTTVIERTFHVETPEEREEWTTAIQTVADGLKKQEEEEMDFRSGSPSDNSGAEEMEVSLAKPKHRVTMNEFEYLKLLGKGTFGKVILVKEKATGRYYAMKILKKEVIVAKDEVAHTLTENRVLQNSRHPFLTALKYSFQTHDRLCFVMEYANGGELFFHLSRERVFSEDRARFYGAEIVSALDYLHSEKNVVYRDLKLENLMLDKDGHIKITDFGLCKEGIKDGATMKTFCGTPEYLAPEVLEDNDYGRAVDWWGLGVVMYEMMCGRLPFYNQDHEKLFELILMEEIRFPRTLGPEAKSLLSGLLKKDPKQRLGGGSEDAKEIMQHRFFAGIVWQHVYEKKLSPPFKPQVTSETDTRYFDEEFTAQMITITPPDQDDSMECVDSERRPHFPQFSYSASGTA
structure (smiles),measurement,setting,value
CC(C)C[C@@H](NC(=O)[C@H](N)Cc1ccc(O)cc1)C(=O)N[C@H](CCC(=O)O)C(=O)N[C@H](C)C(=O)N[C@H](Cc1ccccc1)C(N)=O [yleaf] (H-[dY][dL][dE][dA][dF]-NH2; N-terminus assumed),Kd,[1],328 ± 96 nM
same,Kd,[2],54 ± 7 nM
same,pulldown of E17K mutant PH Domain by biotinylated anchor candidates,[3],a distinctively stronger binding to the E17K protein relative to the WT; also recorded: the greatest binding to the mutant
same,selectivity for E17K 33-mer fragment over WT in point ELISA,[4],significant selectivity for the E17K fragment over the WT

# Source: patent publication US10975123B2, “Mutant Akt-specific capture agents, compositions, and methods of using and making” (California Institute of Technology, priority 2014, dated 2021)
